Experimental data reported in patent US10821117B2, “Estrogen therapy for brain gray matter atrophy and associated disability” (The Regents of the University of California, priority 2014, dated 2020).

Legend:
[1] = tested on: relapsing remitting multiple sclerosis patients; assay: Voxel-based morphometry (VBM) of gray matter loss; format: in vivo, human; settings: at 12 months; FDR P≤0.05; FIG. 9
Experimental: Voxel-based morphometry (VBM) analyses were performed as described by Kurth et al. (Neuroimage Clin. 4:454 (2014)). All subjects included in the VBM cohort were required to have at least reached month 12 of the study, and all images had to pass quality control before and after image preprocessing to be included in the VBM cohort. Using this criteria, the VBM cohort consisted of Ill subjects (62 in the estriol+GA, and 49 in the placebo+GA group) from 13 sites for month 12 analyses, and 86 of these subjects (45 in the estriol+GA, and 41 in the placebo+GA group) for 24 month analyses.
Brain images were preprocessed utilizing SPM8 and the VBM8 toolbox. White matter lesions were in-painted to minimize their impact based on manual delineations that were used for the analysis of new T2 lesions. […]
For the statistical analysis, a general linear model was applied that used the smoothed gray matter segments as the dependent and group x time as the independent variable. […] Applying this model, the interaction between group and time was calculated using T-tests to investigate group differences in local gray matter changes between month 0 and month 12 (month 0 and month 24, respectively). […]

[2] = tested on: relapsing remitting multiple sclerosis patients; assay: Delayed Recall Test, proportion with perfect score; format: in vivo, human
Experimental: The estriol and placebo subjects were administered the Delayed Recall Test periodically throughout the study. A perfect score on the test is 7, and for both treatment groups, the median score was also 7. Therefore, performance was assessed by the proportion of subjects in each group who achieved a perfect score on the test. […] Logistic regression for repeated measurement was used to compare the probability having a perfect score between the two treatment groups, adjusting for age, education level, and baseline recall (Table 9).

## glatiramer acetate [Placebo + GA]
[1]
  voxel-wise gray matter loss as compared to baseline: significant localized gray matter loss
  voxel-wise gray matter loss, between group comparison: significantly more gray matter loss
[2]; Month 3
  Percentage of subjects achieving a perfect score on the Delayed Recall Test: 65.9 (48/74) %
[2]; Month 6
  Percentage of subjects achieving a perfect score on the Delayed Recall Test: 76.1 (54/71) %
[2]; Month 12
  Percentage of subjects achieving a perfect score on the Delayed Recall Test: 69.8 (44/63) %
[2]; Month 18
  Percentage of subjects achieving a perfect score on the Delayed Recall Test: 65.4 (36/55) %
[2]; Month 24
  Percentage of subjects achieving a perfect score on the Delayed Recall Test: 75.0 (42/56) %
[2]; logistic regression for repeated measurement, adjusted for age, education level, baseline recall
  Delayed Recall Test, Estimated perfect score rate (95% CI): 73.2 (65.7, 79.5) %
